Values of other authors in US20200155510A1, “TREATMENT OF AUTOIMMUNE DISORDERS, SUCH AS RELAPSING REMITTING MULTIPLE SCLEROSIS AND […] SYNDROME WITH BIOTIN COMPOSITIONS” (JDS Therapeutics, LLC, priority 2018, published 2020).

Settings: relative to biotin; background statement, no method given

O=C(O)CCCC[C@@H]1SC[C@@H]2NC(=O)N[C@@H]21 [Magnesium biotinate, Magnesium D-biotinate]
water solubility: more water soluble than biotin
